Laboratory results: US7763656B2, “Use of Acetylamino benzoic acid compounds for nonsense suppression and the treatment of disease” (PTC Therapeutics, Inc., priority 2002, dated 2010)
Several values for one entry are separate records, joined by “and”; a condition that tells them apart may be missing. Equal values may be shown once.

SMILES	melting point
Cc1cc(OCC(=O)Nc2cccc(C(=O)O)c2)cc(C(C)C)c1 [Compound 5, 3-[2-(3-isopropyl-5-methyl-phenoxy)-acetylamino]-benzoic acid]	183 to 184 °C
O=C(O)c1cccc(N2CCC(Oc3ccc(Oc4ccccc4)cc3)C2=O)c1 (stereo not drawn) [Compound 39, 3-[2-Oxo-3-(4-phenoxy-phenoxy)-pyrrolidin-1-yl]-benzoic acid]	185 to 187 °C
O=C(COc1ccc(Nc2ccccc2)cc1)Nc1cccc(C(=O)O)c1 [Compound 65, 3-[2-(4-Phenylamino-phenoxy)-acetylamino]-benzoic acid]	214 to 215 °C
CC(C)c1ccc(COC2CCN(c3cccc(C(=O)O)c3)C2=O)cc1 (stereo not drawn) [Compound 79, 3-[3-(4-Isopropyl-benzyloxy)-2-oxo-pyrrolidin-1-yl]-benzoic acid]	170 to 171 °C
Cc1ccc(C(C)C)c(OC(C)C(=O)Nc2cccc(C(=O)O)c2)c1 (stereo not drawn) [Compound 41, 3-[2-(2-Isopropyl-5-methyl-phenoxy)-propionylamino]-benzoic acid]	161 to 163 °C
O=C(COc1ccc(Cl)c(F)c1)Nc1cccc(C(=O)O)c1 [Compound 54, 3-[2-(4-Chloro-3-fluoro-phenoxy)-acetylamino]-benzoic acid]	242 to 244 °C
O=C(COc1ccc(Oc2ccccc2)cc1)Nc1cccc(C(=O)O)c1 [Compound 70, 3-[2-(4-Phenoxy-phenoxy)-acetylamino]-benzoic acid]	202 to 205 °C
CCC(C)(C)c1ccc(OCC(=O)Nc2cccc(C(=O)O)c2)cc1 [Compound 15, 3-{2-[4-(1,1-dimethyl-propyl)-phenoxy]acetylamino)-benzoic acid]	164 to 165 °C
Cc1cc(OCC(=O)Nc2cccc(C(=O)O)c2)ccc1Cl [Compound 25, 3-[2-(4-chloro-3-methyl-phenoxy)-acetylamino]-benzoic acid]	197 to 198 °C
O=C(O)c1cccc(N2CCC(Oc3ccc(Cl)cc3)C2=O)c1 (stereo not drawn) [Compound 75, 3-[3-(4-Chloro-phenoxy)-2-oxo-pyrrolidin-1-yl]-benzoic acid]	192 to 193 °C
CCc1ccc(OC2CCN(c3cccc(C(=O)O)c3)C2=O)cc1 (stereo not drawn) [Compound 83, 3-[3-(4-Ethyl-phenoxy)-2-oxo-pyrrolidin-1-yl]-benzoic acid]	194 to 195 °C
CCc1cccc(OC2CCN(c3cccc(C(=O)O)c3)C2=O)c1 (stereo not drawn) [Compound 38]	150 to 152 °C
O=C(O)c1cccc(N2CCC(Oc3ccc4c(c3)OCO4)C2=O)c1 (stereo not drawn) [Compound 36, 3-[3-(Benzo[1,3]dioxol-5-yloxy)-2-oxo-pyrrolidin-1-yl]-benzoic acid]	194 to 197 °C
Cc1cc(OCC(=O)Nc2cccc(C(=O)O)c2C)ccc1C(C)C [Compound 59, 3-[2-(4-Isopropyl-3-methyl-phenoxy)-acetylamino]-2-methyl-benzoic acid]	148 to 171 °C
O=C(COc1ccc(C(=O)c2ccccc2)cc1)Nc1cccc(C(=O)O)c1 [Compound 32, 3-[2-(4-benzoyl-phenoxy)-acetylamino]-benzoic acid]	208 to 210 °C
CC(C)c1ccc(OCC(=O)Nc2cccc(C(=O)O)c2)cc1 [Compound 7, 3-[2-(4-isopropyl-phenoxy)-acetylamino]-benzoic acid]	171 to 174 °C
CCCc1ccc(OCC(=O)Nc2cccc(C(=O)O)c2)cc1 [Compound 16, 3-[2-(4-propyl-phenoxy)-acetylamino]-benzoic acid]	185 to 186 °C
O=C(COc1ccc(Cc2ccccc2)cc1)Nc1cccc(C(=O)O)c1 [Compound 69, 3-[2-(4-Benzyl-phenoxy)-acetylamino]-benzoic acid]	205 to 209 °C
Cc1cc(OCC(=O)Nc2cc(C(=O)O)ccc2Cl)ccc1C(C)C [Compound 31, 4-chloro-3-[2-(4-isopropyl-3-methyl-phenoxy)-acetylamino]-benzoic acid]	218 to 220 °C
O=C(COc1ccc(Nc2ccc([N+](=O)[O-])cc2[N+](=O)[O-])cc1)Nc1cccc(C(=O)O)c1 [Compound 67, 3-{2-[4-(2,4-Dinitro-phenylamino)-phenoxy]-acetylamino}-benzoic acid]	237 to 238 °C
CC(C)c1ccc(OC2CCN(c3cccc(C(=O)O)c3)C2=O)cc1 (stereo not drawn) [Compound 33, 3-[3-(4-Isopropyl-phenoxy)-2-oxo-pyrrolidin-1-yl]-benzoic acid]	210 to 211 °C
O=C(COc1ccc2ccccc2c1)Nc1cccc(C(=O)O)c1 [Compound 52, 3-[2-(Naphthalen-2-yloxy)-acetylamino]-benzoic acid]	223 to 224 °C
COc1ccc(C(=O)O)cc1NC(=O)COc1cc(C)ccc1C(C)C [Compound 44, 3-[2-(2-Isopropyl-5-methyl-phenoxy)-acetylamino]-4-methoxy-benzoic acid]	253 to 255 °C
Cc1ccc(OC2CCN(c3cccc(C(=O)O)c3)C2=O)cc1 (stereo not drawn) [Compound 84, 3-[3-(4-Methyl-phenoxy)-2-oxo-pyrrolidin-1-yl]-benzoic acid]	185 to 187 °C

SMILES	melting point
O=C(COc1ccc(Nc2ccc([N+](=O)[O-])cn2)cc1)Nc1cccc(C(=O)O)c1 [Compound 63, 3-{2-[4-(5-Nitro-pyridin-2-ylamino)-phenoxy]-acetylamino}-benzoic acid]	284 to 285 °C
Cc1cccc(OCC(=O)Nc2cccc(C(=O)O)c2)c1 [Compound 42, 3-[2-(5-Methyl-phenoxy)-acetylamino]-benzoic acid]	200 to 201 °C
CC(C)c1ccccc1OCC(=O)Nc1cccc(C(=O)O)c1 [Compound 43, 3-[2-(2-Isopropyl-phenoxy)-acetylamino]-benzoic acid]	168 to 170 °C
Cc1ccc(OCC(=O)Nc2cccc(C(=O)O)c2)cc1C [Compound 1, 3-[2-(3,4-dimethyl-phenoxy)-acetylamino]-benzoic acid]	201 to 202 °C
O=C(COc1ccc2c(c1)CCC2)Nc1cccc(C(=O)O)c1 [Compound 19, 3-[2-(indan-5-yloxy)-acetylamino]-benzoic acid]	203 to 204 °C
O=C(COc1ccc(C(=O)O)cc1)Nc1cccc(C(=O)O)c1 [Compound 50, 3-[2-(4-Carboxy-phenoxy)-acetylamino]-benzoic acid]	260 to 261 °C
Cc1c(F)cc(OC2CCN(c3cccc(C(=O)O)c3)C2=O)c(F)c1F (stereo not drawn) [Compound 85, 3-[2-Oxo-3-(2,3,5-trifluoro-4-methyl-phenoxy)-pyrrolidin-1-yl]-benzoic acid]	190 to 191 °C
Cc1ccc(C(C)C)c(OCC(=O)Nc2cccc(C(=O)O)c2)c1 [Compound 40, 3-[2-(2-Isopropyl-5-methyl-phenoxy)-acetylamino]-benzoic acid]	211 to 213 °C
O=C(COc1ccc(C#Cc2ccccc2)cc1)Nc1cccc(C(=O)O)c1 [Compound 28, 3-[2-(4-phenylethynyl-phenoxy)-acetylamino]-benzoic acid]	242 to 244 °C
Cc1cc(OCC(=O)Nc2ccc(Cl)c(C(=O)O)c2)ccc1C(C)C [Compound 57, 2-Chloro-5-[2-(4-isopropyl-3-methyl-phenoxy)-acetylamino]-benzoic acid]	174 to 175 °C
O=C(COc1ccc(-c2ccccc2)cc1)Nc1cccc(C(=O)O)c1 [Compound 13, 3-[2-(biphen-4-yloxy)-acetylamino]-benzoic acid]	245 to 246 °C
Cc1cc(OCC(=O)Nc2cccc(C(=O)O)c2Cl)ccc1C(C)C [Compound 30, 2-chloro-3-[2-(4-isopropyl-3-methyl-phenoxy)-acetylamino]-benzoic acid]	161 to 162 °C
O=C(O)c1cccc(N2CCC(Oc3ccc(Oc4ccc(C(F)(F)F)cc4)cc3)C2=O)c1 (stereo not drawn) [Compound 37, 3{2-Oxo-3-[4-(4-trifluoromethyl-phenoxy)-phenoxy]-pyrrolidin-1-yl}-benzoic acid]	175 to 178 °C
CCc1ccc(OCC(=O)Nc2cccc(C(=O)O)c2)cc1 [Compound 18, 3-[2-(4-ethyl-phenoxy)-acetylamino]-benzoic acid]	209 to 211 °C
Cc1ccccc1-c1ccc(OCC(=O)Nc2cccc(C(=O)O)c2)cc1 [Compound 9, 3-[2-(2’-methyl-biphen-4-yloxy)-acetylamino]-benzoic acid]	220 to 221 °C
CC(C)c1ccc(C(=O)CC(=O)Nc2cccc(C(=O)O)c2)cc1 [Compound 29, 3-[3-(4-isopropyl-phenyl)-3-oxo-propionylamino]-benzoic acid]	262 to 263 °C
O=C(COc1ccc(OCc2ccccc2)cc1)Nc1cccc(C(=O)O)c1 [Compound 61, 3-[2-(4-Benzyloxy-phenoxy)-acetylamino]-benzoic acid]	208 to 210 °C
O=C(COc1ccc2c(c1)CCCC2)Nc1cccc(C(=O)O)c1 [Compound 20, 3-[2-(5,6,7,8-tetrahydro-naphthalen-2-yloxy)-acetylamino]-benzoic acid]	199 to 201 °C
O=C(O)c1cccc(N2CCC(Oc3ccc(OC(F)(F)F)cc3)C2=O)c1 (stereo not drawn) [Compound 86, 3-[2-Oxo-3-(4-trifluoromethoxy-phenoxy)-pyrrolidin-1-yl]-benzoic acid]	190 to 191 °C
Cc1cc(OCC(=O)Nc2cc(F)c(F)c(C(=O)O)c2F)ccc1C(C)C [Compound 58, 2,3,6-Trifluoro-5-[2-(4-isopropyl-3-methyl-phenoxy)-acetylamino]-benzoic acid]	200 to 208 °C
O=C(COc1ccc(CN2C(=O)c3ccccc3C2=O)cc1)Nc1cccc(C(=O)O)c1 [Compound 72]	238 to 240 °C
O=C(COc1ccc(Cc2nn[nH]n2)cc1)Nc1cccc(C(=O)O)c1 [Compound 78, 3-{2-[4-(2H-Tetrazol-5-ylmethyl)-phenoxy]-acetylamino}-benzoic acid]	267 to 268 °C
Cc1cc(OCC(=O)Nc2cccc(C(=O)O)c2)ccc1C(C)C [Compound 4, 3-[2-(4-isopropyl-3-methyl-phenoxy)-acetylamino]-benzoic acid]	191 to 192 °C and 188 to 189 °C
O=C(COc1ccc(Oc2ccc(C(F)(F)F)cc2)cc1)Nc1cccc(C(=O)O)c1 [Compound 68, 3-{2-[4-(4-Trifluoromethyl-phenoxy)-phenoxy]-acetylamino}-benzoic acid]	189 to 190 °C
